Reference: patent US20210161189A1, “MONOESTER SUGAR DERIVATIVES AS FLAVOR MODIFIERS” (Firmenich SA, priority 2018, published 2021)

How the values were obtained:
sensory panel [1] = assay: Sensory panel, coffee composition (Emmi Noir coffee, containing milk); type: in vivo, human; conditions: 200 ppm in coffee containing milk; panel score
Protocol: (§1) Next, glucose-6-O-octanoate was added to a coffee composition (Emmi Noir coffee, containing milk), to result in a final concentration of 200 ppm in the test composition. In parallel, a control composition, comprising Emmi Noir coffee, containing milk was also generated. A sensory panel consisting of between 6 to 8 persons compared the overall flavor, sweetness, acidity, bitterness, astringency, off-notes, and long-lastingness of the sweetness of the test composition and the control composition. The results were analyzed using the Duncan comparison test.

sensory panel [2] = assay: Sensory panel, raspberry flavored water; type: in vivo, human; design: scale not given here; conditions: panel score
Protocol: […] In parallel, a control composition, comprising raspberry flavored water was also generated. A sensory panel consisting of between 6 to 8 persons compared the overall flavor, sweetness, acidity, bitterness, astringency, off-notes, and long-lastingness of the sweetness of the test composition and the control composition. The results were analyzed using the Duncan comparison test.

sensory panel [3] = assay: Sensory panel, dairy test composition (milk sweetened with 3% w/v sucrose); type: in vivo, human; conditions: 100 ppm in milk sweetened with 3% sucrose; panel score
Protocol: Glucose-6-O-octanoate, manufactured according to the methods described in Example 1 above was added to a dairy test composition (milk sweetened with 3% w/v sucrose), to result in a final concentration of 100 ppm in the test composition. In parallel, a control composition, comprising milk sweetened with 3% w/v sucrose was also generated. A sensory panel consisting of between 6 to 8 persons compared the overall flavor, sweetness, acidity, bitterness, astringency, off-notes, and long-lastingness of the sweetness of the dairy test composition containing 100 ppm glucose-6-O-octanoate and the control composition. The results were analyzed using the Duncan comparison test.

β-Lactoglobulin layer = target: T1, β-Lactoglobulin layer (Bos taurus, UniProt P02754); assay: QCM-D mass adsorption of BWAT Raspberry water films on a protein layer; type: physicochemical; conditions: for mass/area: mass absorption on protein layer
T1 sequence (P02754 17-178): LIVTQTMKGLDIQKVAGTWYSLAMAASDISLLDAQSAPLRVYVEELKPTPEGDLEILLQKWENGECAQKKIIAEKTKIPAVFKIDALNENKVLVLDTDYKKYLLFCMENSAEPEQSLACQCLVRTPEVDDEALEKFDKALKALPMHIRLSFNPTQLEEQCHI
Source text: Quartz Crystal Microbalance with Dissipation monitoring (QCM-D) is a real-time, nanoscale technique for monitoring and characterizing thin films on surfaces as well for analyzing surface phenomena including thin film formation, adsorption, desorption, molecular interactions, reactions and structural properties. In this way, the QCM operates as a very sensitive balance.
A QCM sensor consists of a thin quartz disc sandwiched between a pair of electrodes. Due to the piezoelectric properties of quartz, it is possible to excite the crystal to oscillation by applying an AC voltage across its electrodes. Normally the electrodes are made of gold, which can be coated with a wide range of different materials. The resonance frequency (f) of the sensor depends on the total oscillating mass, including water coupled to the oscillation. When a thin film is attached to the sensor, the frequency decreases. If the film is thin and rigid the decrease in frequency is proportional to the mass of the film. Frequency monitoring gives information about mass changes and thickness of adsorbed film. Adsorbed films dampen the sensor's oscillation. […] Therefore dissipation is related to the rigidity of the adsorbed film.
This technique was used to analyse the properties of adsorbed BWAT Raspberry water films on a β-Lactoglobulin layer in order to compare the obtained physico-chemical data to the sensory data mentioned beforehand. β-Lactoglobulin was used in order to mimic the protein layer in the oral cavity.
The measurements were done as duplicates. First a protein layer was adsorbed on the quartz crystal. As soon as equilibrium is obtained, the excessive protein layer was rinsed with Millipore water in order to create a homogenous protein monolayer. Ensuing, the Raspberry water was left to rinse over the protein layer—frequency changes and energy dissipation were monitored during a time lapse of 10 min. A last rinsing step with Millipore was conducted.
To understand the role of glucose-6-O-octanoate (G60) as astringency/bitterness modulator the following solutions were investigated on their adsorption behavior.

sensory panel [4] = assay: Sensory panel, pomegranate juice; type: in vivo, human; conditions: 100 ppm in pomegranate juice; panel score
Protocol: as §1, with “pomegranate juice composition,” for “coffee composition (Emmi Noir coffee, containing milk),”, “100” for “200”, “pomegranate juice” for “Emmi Noir coffee, containing milk”

sensory panel [5] = assay: Taste modifier properties in model systems (sensory panel of 15 persons, with/without noseclip); type: in vivo, human; conditions: 100 ppm; for Sour taste modulation effect: without nose clip
Protocol: The sensory properties of various compositions comprising a monoester derivative of glucose were tested in various model systems, outlined in Table 14 below. [table] FIGS. 12 to 18 report the sweetness modifier properties of each of the following compounds (tested at 100 ppm in the various mode systems described above): glucose-6-O-octanoate, glucose-6-O-acetate, glucose-6-O-hexanoate, glucose-6-O-decanoate, glucose-6-O-hexadecanoate, glucose-6-O-oleate and glucose-6-O-oleyl derivative. The sensory properties were evaluated by a sensory panel consisting of15 persons, where the properties were evaluated with the subjects wearing a noseclip (With NC), and without a noseclip (Without NC). The subjects evaluate the perceived intensities of different sensory attributes on a linear scale (“0” note intense to “10” very intense) for the corresponding model mixtures without and with the compound at 100ppm. The differences of perceived intensities between the model mixtures with and without the compound are represented for each attribute. A statistical data treatment (unilateral paired student test) is achieved on each attribute to conclude on a significant or not significant taste modulation effect of the compound.

`CCCCCCCC(=O)OC[C@@H](O)[C@@H](O)[C@H](O)[C@@H](O)C=O` [glucose-6-O-octanoate] was tested, and the Acidity (sensory panel [1]) was 0.17, the Bitterness (sensory panel [1]) was 1.92 and the “Long-lasting (sweet)” value (sensory panel [1]) was 1.83. It also gave an Off-notes (sensory panel [1]) of 0.33, an Overall Flavor (sensory panel [1]) of 3.17 and an Astringency (sensory panel [2]; 100 ppm in raspberry water) of 0.58. The Bitterness (sensory panel [2]; 100 ppm in raspberry water) was 0.5, the Long-Lasting (sensory panel [2]; 100 ppm in raspberry water) was 0.67 and the “Overall Flavor” value (sensory panel [2]; 100 ppm in raspberry water) was 3.33. For the same molecule, the Sweetness (sensory panel [2]; 100 ppm in raspberry water) was 3.42, the Acidity (sensory panel [2]; 200 ppm in raspberry water) was 2.62 and the Long-Lasting (sensory panel [2]; 200 ppm in raspberry water) was 1.81. For the same molecule, the “Overall Flavor” value (sensory panel [2]; 200 ppm in raspberry water) was 3.06, the Sweetness (sensory panel [2]; 200 ppm in raspberry water) was 2.69 and the Acidity (sensory panel [3]) was 0. It also gave an Astringency (sensory panel [3]) of 0.6, a Bitterness (sensory panel [3]) of 0.8 and a Long-Lasting (sensory panel [3]) of 1.4. The “Overall Flavor” value (sensory panel [3]) was 1.8, the “Mass adsorption versus control sample” value (β-Lactoglobulin layer; BWAT raspberry water in presence of G60) was “higher mass adsorption compared to the control sample” and the mass/area (β-Lactoglobulin layer; BWAT w/ 200 ppm G60) was 1257 ng/cm^2. The mass/area (β-Lactoglobulin layer; BWAT w/ 1000 ppm G60) was 1194 ng/cm^2, the “Amount of rinsed away mass” value (β-Lactoglobulin layer; over the 10 min of mass adsorption monitoring, dependence on G60 concentration) was “The higher the G60 concentration the lower is the amount of rinsed away mass” and the Long-Lasting (sensory panel [4]) was 1.75. For the same molecule, the Off-notes (sensory panel [4]) was 0.62, the “Overall Flavor” value (sensory panel [4]) was 3.38 and the “Sweet taste modulation effect” value (sensory panel [5]; SG95 model mixture, without and with nose clip) was “significant sweet enhancing effects”. For the same molecule, the “Round/thick/mouth coating modulation effect” value (sensory panel [5]; beverage grapefruit model, with nose clip, significance 95%) was “significant round/thick/mouth coating enhancing effect”, the “Sour taste modulation effect” value (sensory panel [5]; beverage grapefruit model, significance 95%) was “significant sour masking effect” and the “Sweet taste modulation effect” value (sensory panel [5]; semi-skimmed milk+sucrose model mixture, without and with nose clip) was “significant sweet enhancing effects”. For the same molecule, the “Sweet taste modulation effect” value (sensory panel [5]; stevia-sour model, with nose clip, significance 95%) was “significant sweet masking effect”, the “Sweet taste modulation effect” value (sensory panel [5]; sucrose model mixture) was “significant sweet enhancing effects” and the “Sour taste modulation effect” value (sensory panel [5]; sweet-sour model mixture, significance 95%) was “significant sour masking effect”.
